Values of other authors as cited in patent US20230172203A1, “PLANT METABOLISM PROMOTING COMPOSITIONS AND METHODS OF USE” (Panoptic Ag Solutions LLC, priority 2021, published 2023).

Tested on: tea plants
Conditions: exogenous application; background statement; cited from earlier work

## CNC(=O)CC[C@H](N)C(=O)O [γ-glutamylmethylamide]
  quality and yield of tea plants (in words): can improve the quality and yield of tea plants by increasing the number of usable leaves
